{"source": "patent US20230173071A1", "about": "“TREATMENT OF MYOPIA AND OTHER OCULAR CONDITIONS USING SINGLET OXYGEN GENERATED FROM DYES ACTIVATED BY NEAR-INFRARED LIGHT” (California Institute of Technology, priority 2018, published 2023)", "key": {"[1]": {"test": "Singlet oxygen generation by DPBF decay (UV-Vis), 810 nm LED", "assay_type": "physicochemical", "excerpt": "To evaluate the efficiency of singlet oxygen generation by ICG and an analog (IR-820) in vitro, the singlet oxygen generation was monitored. 1,3-diphenylisobenzofuran (DPBF), a compound that decays in the presence of singlet oxygen, and singlet oxygen sensor green (SOSG), a dye that increases fluorescence in the presence of singlet oxygen, were used as markers to indicate singlet oxygen generation by ICG and IR-820. […] For SOSG analysis, the fluorescence turn-on in H2O and D2O was compared to that observed when riboflavin—an FDA approved dye used in conjunction with UV light to treat keratoconus (corneal expansion)—was usedIn all cases, an increase in fluorescence emission at 525 nm was observed (using a 488nm excitation)."}, "[2]": {"test": "Irradiation of IR-1061 dyes with DPBF, 980 nm or 1064 nm laser", "assay_type": "physicochemical", "conditions": "for DPBF signal relative to a dark control: 30 minutes of irradiation, 1 W cm^-2 980 nm laser", "procedure": "Initial work was done using a set of IR-1061 derivatives: cited herein as IR-1061-pyridine and IR-1061-pyridinium.\nLike IR-1061-pyridinium, IR-1061-acridinium was irradiated in CDCl3 in the presence of DPBF using a 1 W cm^−2 980 nm laser (FIG. 15(A)). As a comparison, a similar irradiation was carried out using a 1.8 W cm^−2 1064 nm laser (FIG. 16). The collective effect of irradiation wavelength and conditions are seen in FIGS. 15(A-C), and FIGS. 16-18."}, "[3]": {"test": "Dye solubility observations", "assay_type": "physicochemical", "conditions": "counterion exchanged from BF4- to BarF-", "procedure": "ICG is a NIR-absorbing heptamethine dye that has the potential of generating singlet oxygen upon irradiation and has a λmax ranging from 780-810 nm depending on the context. […] BAC along with other cationic surfactants (alkyl ammonium salts, polyoxyethylene alkyl amines, amide linked alkyl amines, alkyl imidazolines, etc.) aid in the solubility of the dye in aqueous media. […] The standard formulation used in these studies consisted of 0.05 to 5.0 mg/mL ICG and 0.01% to 0.001% BAC in solution. D2O was selected as the solvent to increase the lifetime of singlet oxygen and therefore the crosslinking capability of the species. […] Fluorinated solvents (perfluorohexane, perfluorotripentylamine, etc.) are also of interest due to their ability to dissolve more oxygen and their robust inertness."}, "[4]": {"test": "Dye stability observations", "procedure": "Unfortunately, IR-1061-pyridinium was unatable in the presence of water. In an attempt to overcome the susceptibility of IR-1061-pyridinium to hydration, the pyridine charge-transfer partner was exchanged for acridine, which was expected to shield the dye from water addition due to its additional bulk.\nTo confirm that the process was singlet oxygen-mediated, irradiation of a freeze-pump-thawed sample—devoid of oxygen—was carried out. […] To evaluate the scope of the reaction, the dye was irradiated in an array of deuterated solvents."}, "[5]": {"test": "Irradiation of IR-1061 dyes with DPBF, 980 nm or 1064 nm laser", "assay_type": "physicochemical"}, "[6]": {"test": "Singlet oxygen sensor green (SOSG) fluorescence measurements", "assay_type": "physicochemical", "conditions": "dye 0.1 mg/mL; 3 mW at 365 nm; 488 nm excitation", "procedure": "Singlet oxygen sensor green (SOSG) is a common reagent for measuring singlet oxygen generation in aqueous systems. The marker becomes more fluorescent as singlet oxygen is generated. All time measurements were done in triplicate (100 μL aliquots from an irradiated sample). A Molecular Devices Flexstation was used to read out the fluorescence measurements with the excitation/emission at 488/525 nm.\nSOSG fluorescence turn on was initially measured using riboflavin as a point of comparison for the efficacy of ICG irradiations. Measurements used a dye concentration of 0.1 mg/mL and the irradiation the parameters (3 mW at 365 nm) used in the FDA approved procedure for keratoconus (corneal expansion). The mixture was stirred during irradiation.\nStocks of the ICG formulations (both H2O and D2O) were made to be 1 mg/mL ICG and 0.01% benzalkonium chloride (BAC). These were diluted to a dye concentration of 0.1 mg/mL for the SOSG tests with no adjustments for the BAC. The sample was irradiated with 810 nm light at 200 mW and stirred throughout the irradiation."}, "porcine sclera": {"system": "porcine sclera", "conditions": "treated with UV light and riboflavin; previous work; cited from earlier work"}, "[7]": {"conditions": "deuterated polar aprotic solvents, such as DMSO"}, "[8]": {"conditions": "water (D2O with 7.5% DMSO-D6), 980 nm"}}, "note": "Entries after “also recorded” stand apart in the source; their conditions may differ."}
{"smiles": "CC1(C)C(=CC=C2CCCC(C=CC3=[N+](CCCCS(=O)(=O)[O-])c4ccc5ccccc5c4C3(C)C)=C2Cl)N(CCCCS(=O)(=O)[O-])c2ccc3ccccc3c21.[Na+]", "note": "[IR-820]", "values": [{"measurement": "DPBF decay / singlet oxygen generation in D2O compared to H2O", "setting": "[1]; 810 nm LED", "value": "increase; also recorded: faster decay rate"}, {"measurement": "DPBF signal decay when irradiated", "setting": "[1]; D2O, 810 nm LED", "value": "marked increase in the signal decay"}, {"measurement": "DPBF signal decay when irradiated", "setting": "[1]; H2O, 810 nm LED", "value": "marked increase in the signal decay"}, {"measurement": "singlet oxygen generation (DPBF analysis)", "setting": "[1]; in H2O or D2O", "value": "singlet oxygen generation was observed"}]}
{"smiles": "C(/C=C1\\CCCC(/C=C/c2cc(-c3ccccc3)[s+]c(-c3ccccc3)c2)=C1[n+]1c2ccccc2cc2ccccc21)=C1C=C(c2ccccc2)SC(c2ccccc2)=C1", "note": "[IR-1061-Acridinium BArF]", "values": [{"measurement": "photosensitization capability", "setting": "[2]; counterion exchanged from BF4- to BarF-", "value": "marked decrease"}, {"measurement": "solubility", "setting": "[3]", "value": "increase"}]}
{"smiles": "C(/C=C1\\CCCC(/C=C/c2cc(-c3ccccc3)[s+]c(-c3ccccc3)c2)=C1[n+]1c2ccccc2cc2ccccc21)=C1C=C(c2ccccc2)SC(c2ccccc2)=C1", "note": "[IR-1061-acridinium]", "values": [{"measurement": "dye and DPBF signal during irradiation", "setting": "[2]; 1064 nm in CDCl3", "value": "Rapid bleaching of both the dye and DPBF signal"}, {"measurement": "DPBF signal", "setting": "[2]; freeze-pump-thawed CDCl3 (devoid of oxygen), 980 nm", "value": "no change"}, {"measurement": "stability to strong acids and bases", "setting": "[4]; prior to irradiation", "value": "dye instability and bleaching prior to irradiation"}, {"measurement": "singlet oxygen generation", "setting": "[5]; deuterated nonpolar solvents, such as toluene", "value": "no singlet oxygen generation was observed"}, {"measurement": "DPBF degradation", "setting": "[5]; [7]", "value": "decreased"}, {"measurement": "photobleaching of the dye", "setting": "[5]; [7]", "value": "photobleaching"}, {"measurement": "DPBF degradation rates", "setting": "[5]; [8]", "value": "comparable to those seen in chloroform"}, {"measurement": "photobleaching of the dye", "setting": "[5]; [8]", "value": "high levels"}]}
{"smiles": "C(/C=C1\\CCCC(/C=C/c2cc(-c3ccccc3)[s+]c(-c3ccccc3)c2)=C1[n+]1ccccc1)=C1C=C(c2ccccc2)SC(c2ccccc2)=C1", "note": "[IR-1061-pyridinium]", "values": [{"measurement": "DPBF signal relative to a dark control", "setting": "[2]", "value": "significant decrease"}, {"measurement": "stability in the presence of water", "setting": "[4]", "value": "unatable"}]}
{"smiles": "ClC1=C(/C=C/c2cc(-c3ccccc3)[s+]c(-c3ccccc3)c2)CCC/C1=C\\C=C1C=C(c2ccccc2)SC(c2ccccc2)=C1", "note": "[IR-1061]", "values": [{"measurement": "DPBF signal relative to a dark control", "setting": "[2]", "value": "no significant changes"}]}
{"smiles": "Cc1cc2nc3c(=O)[nH]c(=O)nc-3n(C[C@H](O)[C@H](O)[C@H](O)CO)c2cc1C", "note": "[riboflavin]", "values": [{"measurement": "SOSG fluorescence emission at 525 nm", "setting": "[6]", "value": "increase"}, {"measurement": "change in Young's Modulus of pig sclera", "setting": "porcine sclera", "value": "minimal change"}]}
